Experimental data: PubChem BioAssay AID1963833 (Molecular Pharmacology Branch, DTP, NCI, 2024)

System: 883617-216-R-J1-PDC complex spheroid viability
Experiment: Anticancer human tumor 883617-216-R-J1-PDC patient-derived bladder carcinoma cell line growth inhibition [POLQ]
Settings: for IC50: curve of first compound; for viability, T/C: stronger effect = lower value
Experimental: Multicellular complex tumor spheroid response to Polymerase (POL) inhibitors (novobiocin, ART-558, RP6685) in combination with a variety of drugs and investigational agents in selected tumor cell lines
The POL inhibitors (novobiocin, ART-558, and RP6685) were evaluated both individually and in combination with standard of care and investigational anticancer small molecules within a complex spheroid model of solid tumors. . Complex spheroids include a stromal component modeled by human endothelial cells (HUVEC) and fibroblasts modeled by human mesenchymal stem cells (MSCs). The concentration ranges selected for each drug and investigational agent were based upon clinically achievable concentrations if the clinical Cmax of the agent was known.
Compounds. The drugs and investigational agents: novobiocin (NSC847541), ART-558 (NSC835418), RP-6685 (NSC848927), peposertib (NSC802822), ceralasertib (NSC780249), elimusertib (NSC800525), camonsertib (NSC841442), AZD-1390 (NSC803789), olaparib (NSC753686), talazoparib (NSC767125), rucaparib (NSC756644), sotorasib (NSC818433), MRTX-1133 (NSC836407), SN-38 (NSC673596), topotecan (NSC609699), epotoside (NSC141540), doxorubicin (NSC123127), gemcitabine (NSC613327), 5-fluorouracil (NSC19893), paclitaxel (NSC125973), vemurafenib (NSC761431), MSA-2 (NSC828583), SN-011 (NSC837082), adavosertib (NSC754352), prexasertib (NSC758257), carboplatin (NSC241240) and oxaliplatin (NSC266046), were obtained from the National Cancer Institute (NCI) Developmental Therapeutics Program Chemical Repository (21). The FDA-approved anticancer drug set is available from the Developmental Therapeutics Program at https://dtp.cancer.gov/organization/dscb/obtaining/. […] The stock solutions were prepared in dimethyl sulfoxide (DMSO, Sigma-Aldrich, St. Louis, MO, cat. D2650), except for the platinum compounds which were prepared in saline (Quality Biological, Gaithersburg, MD, cat. 114-055-101), at 800-fold the tested concentration and stored at -70 degrees C prior to their use. All drugs and investigational agents were tested over a range starting from a high concentration at or near the clinical Cmax and decreasing in half-log increments. If the clinical Cmax for an agent had not been determined, the highest concentration tested was 10 microM, except for SN-38, which was tested at a high concentration of 1 microM.
Cell Culture. All cells were maintained in an incubator at 37 degrees C and 5% CO2 with 95% humidity. The PDC lines were cultured according to standard operating procedures established by the NCI PDMR (https://pdmr.cancer.gov). Table 3 of the manuscript, lists the cell lines along with the number of the three cell types plated to form the mct-spheroids and media for tumor cell growth. After thawing, all PDC lines, except 997537-175-T-J1-PDC and 415267-285-R-J2-PDC, were cultured in Matrigel-coated flasks prepared with a working solution of 1X Ham's F-12 nutrient mix, without supplementation (Thermo Fisher Scientific, cat. 11765054), 100 U/mL penicillin-streptomycin (Thermo Fisher Scientific, cat. 15140122), and 2.5% Matrigel (Corning Inc., Corning, NY, cat. 354248) for the first three passages. The two PDC lines 997537-175-T-J1-PDC and 415267-285-R-J2-PDC were cultured on uncoated flasks. The 857933-349-R-J2-PDC line was cultured in 6C/Colon 1B media containing advanced DMEM/F-12 (Thermo Fisher Scientific, cat. 12634028), 10 mM HEPES (Thermo Fisher Scientific, cat. 15630080), 1X GlutaMAX supplement (Thermo Fisher Scientific, cat. 35050061), 0.1 mg/mL primocin (InvivoGen, San Diego, CA, cat. ant-pm-2), 10% defined fetal bovine serum, heat inactivated (HyClone Laboratories Inc., Logan, UT, cat. SH30070.03HI), 50% L-WRN conditioned media (ATCC, cat. CRL-3276), 1.25 mM N-Acetyl-L-cysteine (Sigma-Aldrich, cat. A9165), 10 mM nicotinamide (Sigma-Aldrich, cat. N0636), 1X B-27 supplement (Thermo Fisher Scientific, cat. 17504044), 1X N-2 supplement (Thermo Fisher Scientific, cat. […]

[1] = second compound 0.0316 µM, first compound 0.0316 µM
[2] = second compound 0.0316 µM, first compound 0.1 µM
[3] = second compound 0.0316 µM, first compound 0.316 µM
[4] = second compound 0.0316 µM, first compound 1 µM
[5] = second compound 0.0316 µM, first compound 3.16 µM
[6] = second compound 0.0316 µM, first compound 10 µM
[7] = second compound 0.1 µM, first compound 0.0316 µM
[8] = second compound 0.1 µM, first compound 0.1 µM
[9] = second compound 0.1 µM, first compound 0.316 µM
[10] = second compound 0.1 µM, first compound 1 µM
[11] = second compound 0.1 µM, first compound 3.16 µM
[12] = second compound 0.1 µM, first compound 10 µM
[13] = second compound 0.316 µM, first compound 0.0316 µM
[14] = second compound 0.316 µM, first compound 0.1 µM
[15] = second compound 0.316 µM, first compound 0.316 µM
[16] = second compound 0.316 µM, first compound 1 µM
[17] = second compound 0.316 µM, first compound 3.16 µM
[18] = second compound 0.316 µM, first compound 10 µM
[19] = second compound 1 µM, first compound 0.0316 µM
[20] = second compound 1 µM, first compound 0.1 µM
[21] = second compound 1 µM, first compound 0.316 µM
[22] = second compound 1 µM, first compound 1 µM
[23] = second compound 1 µM, first compound 3.16 µM
[24] = second compound 1 µM, first compound 10 µM
[25] = second compound 3.16 µM, first compound 0.0316 µM
[26] = second compound 3.16 µM, first compound 0.1 µM
[27] = second compound 3.16 µM, first compound 0.316 µM
[28] = second compound 3.16 µM, first compound 1 µM
[29] = second compound 3.16 µM, first compound 3.16 µM
[30] = second compound 3.16 µM, first compound 10 µM
[31] = second compound 10 µM, first compound 0.0316 µM
[32] = second compound 10 µM, first compound 0.1 µM
[33] = second compound 10 µM, first compound 0.316 µM
[34] = second compound 10 µM, first compound 1 µM
[35] = second compound 10 µM, first compound 3.16 µM
[36] = second compound 10 µM, first compound 10 µM
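Note: spheroids exposed to compounds for seven days before readout.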
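Throughout, for viability, T/C: 100% = DMSO vehicle control viability.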

In the case of `CCCS(=O)(=O)Nc1ccc(F)c(C(=O)c2c[nH]c3ncc(-c4ccc(Cl)cc4)cc23)c1F` + Cc1cccc(N(C)C(=O)C2C(O)CCN2c2nc(C)cc(C(F)(F)F)c2C#N)c1, the IC50 (second compound 0.0316 µM) is reported as greater than 10 µM, the IC50 (second compound 0.1 µM) is reported as greater than 10 µM and the IC50 (second compound 0.316 µM) is reported as greater than 10 µM. The IC50 (second compound 1 µM) was greater than 10 µM, the IC50 (second compound 3.16 µM) was greater than 10 µM and the IC50 (second compound 10 µM) was greater than 10 µM. The viability, T/C [1] was 89.5%, the viability, T/C [2] was 93.6% and the viability, T/C [3] was 99.3%. The viability, T/C [4] was 104%, the viability, T/C [5] was 83.7% and the viability, T/C [6] was 56.8%. The viability, T/C [7] was 105%, the viability, T/C [8] was 94.3% and the viability, T/C [9] was 97.2%. For the same molecule, the viability, T/C [10] was 90.4%, the viability, T/C [11] was 93.9% and the viability, T/C [12] was 55.5%. The viability, T/C [13] was 86.9%, the viability, T/C [14] was 114% and the viability, T/C [15] was 98.4%. For the same molecule, the viability, T/C [16] was 87.2%, the viability, T/C [17] was 80.6% and the viability, T/C [18] was 64.3%. It also gave a viability, T/C [19] of 97.4%, a viability, T/C [20] of 91.4% and a viability, T/C [21] of 92.7%. It also gave a viability, T/C [22] of 93.8%, a viability, T/C [23] of 92.9% and a viability, T/C [24] of 51.7%. It also gave a viability, T/C [25] of 116%, a viability, T/C [26] of 97.3% and a viability, T/C [27] of 106%. For the same molecule, the viability, T/C [28] was 108%, the viability, T/C [29] was 89.2% and the viability, T/C [30] was 55.7%. For the same molecule, the viability, T/C [31] was 98.2%, the viability, T/C [32] was 97.2% and the viability, T/C [33] was 104%. It also gave a viability, T/C [34] of 102%, a viability, T/C [35] of 100% and a viability, T/C [36] of 61.3%.

`CCc1cc2c(N3CCc4c(cc(Cn5ccnc5)cc4-c4cn(C)nc4C(F)(F)F)C3=O)cc(C)nc2c(OC)n1` + Cc1cccc(N(C)C(=O)C2C(O)CCN2c2nc(C)cc(C(F)(F)F)c2C#N)c1 was tested, and the IC50 (second compound 0.0316 µM) was 7.4 µM, the IC50 (second compound 0.1 µM) was 8.3 µM and the IC50 (second compound 0.316 µM) was greater than 10 µM. The IC50 (second compound 1 µM) was 7.69 µM, the IC50 (second compound 3.16 µM) was greater than 10 µM and the IC50 (second compound 10 µM) was 8.25 µM. It also gave a viability, T/C [1] of 87.4%, a viability, T/C [2] of 95.6% and a viability, T/C [3] of 91.7%. The viability, T/C [4] was 91.7%, the viability, T/C [5] was 72.8% and the viability, T/C [6] was 41.8%. The viability, T/C [7] was 86.1%, the viability, T/C [8] was 102% and the viability, T/C [9] was 94.5%. The viability, T/C [10] was 97.6%, the viability, T/C [11] was 72.8% and the viability, T/C [12] was 45.6%. It also gave a viability, T/C [13] of 81.3%, a viability, T/C [14] of 89.2% and a viability, T/C [15] of 98.8%. For the same molecule, the viability, T/C [16] was 83.8%, the viability, T/C [17] was 69.9% and the viability, T/C [18] was 53%. The viability, T/C [19] was 89.1%, the viability, T/C [20] was 88.3% and the viability, T/C [21] was 106%. The viability, T/C [22] was 92.5%, the viability, T/C [23] was 71.1% and the viability, T/C [24] was 43.8%. For the same molecule, the viability, T/C [25] was 99.8%, the viability, T/C [26] was 94.4% and the viability, T/C [27] was 102%. The viability, T/C [28] was 84.8%, the viability, T/C [29] was 74.6% and the viability, T/C [30] was 58.3%. It also gave a viability, T/C [31] of 107%, a viability, T/C [32] of 110% and a viability, T/C [33] of 93%. For the same molecule, the viability, T/C [34] was 95.3%, the viability, T/C [35] was 69.9% and the viability, T/C [36] was 45.9%.

Molecule `COc1cccc(OCCCN)c1-c1cc(Nc2cnc(C#N)cn2)n[nH]1` + Cc1cccc(N(C)C(=O)C2C(O)CCN2c2nc(C)cc(C(F)(F)F)c2C#N)c1 has an IC50 (second compound 0.0316 µM) of 0.0716 µM, an IC50 (second compound 0.1 µM) of 0.0758 µM and an IC50 (second compound 0.316 µM) of 0.0302 µM. For the same molecule, the IC50 (second compound 1 µM) was 0.0773 µM, the IC50 (second compound 3.16 µM) was 0.0927 µM and the IC50 (second compound 10 µM) was 0.146 µM. For the same molecule, the viability, T/C (second compound 0.0316 µM, first compound 0.00316 µM) was 84.8%, the viability, T/C (second compound 0.0316 µM, first compound 0.01 µM) was 70.7% and the viability, T/C [1] was 61.9%. For the same molecule, the viability, T/C [2] was 46.8%, the viability, T/C [3] was 33.9% and the viability, T/C [4] was 35%. The viability, T/C (second compound 0.1 µM, first compound 0.00316 µM) was 95.5%, the viability, T/C (second compound 0.1 µM, first compound 0.01 µM) was 81.7% and the viability, T/C [7] was 68.5%. The viability, T/C [8] was 40.8%, the viability, T/C [9] was 39.7% and the viability, T/C [10] was 30.7%. It also gave a viability, T/C (second compound 0.316 µM, first compound 0.00316 µM) of 86.9%, a viability, T/C (second compound 0.316 µM, first compound 0.01 µM) of 81.8% and a viability, T/C [13] of 48.2%. For the same molecule, the viability, T/C [14] was 45.7%, the viability, T/C [15] was 40.4% and the viability, T/C [16] was 35.4%. For the same molecule, the viability, T/C (second compound 1 µM, first compound 0.00316 µM) was 91.4%, the viability, T/C (second compound 1 µM, first compound 0.01 µM) was 82.9% and the viability, T/C [19] was 51.2%. The viability, T/C [20] was 51.4%, the viability, T/C [21] was 39.5% and the viability, T/C [22] was 29.1%. It also gave a viability, T/C (second compound 3.16 µM, first compound 0.00316 µM) of 91.5%, a viability, T/C (second compound 3.16 µM, first compound 0.01 µM) of 77% and a viability, T/C [25] of 47.1%. The viability, T/C [26] was 60.2%, the viability, T/C [27] was 41.1% and the viability, T/C [28] was 31.8%. It also gave a viability, T/C (second compound 10 µM, first compound 0.00316 µM) of 88.3%, a viability, T/C (second compound 10 µM, first compound 0.01 µM) of 83.5% and a viability, T/C [31] of 65.8%. For the same molecule, the viability, T/C [32] was 51.7%, the viability, T/C [33] was 46.6% and the viability, T/C [34] was 47.5%.
